Results as given in patent EP0429304A2, “Pyridone-carboxylic acid derivatives and their use as veterinary medicines” (SHIONOGI SEIYAKU KABUSHIKI KAISHA trading under the name of …, priority 1989, dated 1991).
Counter-ions that a name gives are not always drawn. Like-named read-outs stand apart in the source and are kept apart here.

Columns and labels:
TS-resistant MG = assay: Experimental MG infection to chicken, through bait; format: in vivo; conditions: 9-days chicken; for Number of infected fowl/Number of fowl tested: 6.6 x 10³ CFU/fowl, dissection 6th day after inoculation
[1] = system: Mycoplasma synoviae (MS) 1853; assay: In vitro sensitivity test (liquid dilution method); format: cell-based; conditions: 37°C, 7 days
Method: (§1) Survey of the sensitivity of the compound (I) to various strains of microorganisms was performed by a liquid dilution method […] an agar dilution method, in which the bacteria used were of animal origin and included the following strains (15 strains out of 11 bacteria): Chicken-origin strain: Mycoplasma gallisepticum (MG), Mycoplasma synoviae (MS), Hemophilus paragallinarum (H.pg) and Escherichia coli (E.coli); Pig-origin strain: Mycoplasma hyopneumoniae (Mh), Hemophilus pleuropneumonia (H.pp) and Bordetella bronchiseptica (B.br); Fish-origin strain: Pasteurella piscicida (P.pis) and Streptococcus sp (Str.sp); others: Escherichia coli (E. coli), Salmonella typhimurium (S.typhi) and Staphylococcus aureus (S.au).
(§2) Of these bacteria, the strains belonging to MG, MS and Mh were cultured at 37°C for 7 days by a liquid dilution method, of which the culture medium comprised: 12 % horse-serum added "PPLO" (agar manufactured by Difco) medium for MG; 12 % pig-serum, 0.01 % βNAD (nicotinamide adenine dinucleotide) added Frey medium for MS; 0.5 % lactoalbumin added Hank's solution, 10 % horse-serum, 0.5 % yeast extract (25 %) for Mh, and the agar dilution method was applied to the strains belonging to H.pg, H.pp, S.typhi, E.coli, S.au and B.br. Specifically, the H.pg strain was cultured in a 5 % chicken-serum added chicken bouillon medium and the H.pp strain was cultured in a heart infusion agar added with 10 % sheep defibered blood and 0.05 % βNAD. In case of the H.pg and P.pp strains, observation was made after cultivation at 37°C for 20 hours under 10 % CO₂. Mueller Hinton agar (Difco) was used for the strains belonging to S.typhi, E.coli, S.au and B.br, and observation was made after cultivation at 37°C for 20 to 24 hours. P.pis and Str.sp, both being of fish-origin, were respectively cultured at 25°C for 40 to 48 hours in a 1.5 % NaCl added heart infusion agar and in a sensitive disk medium.

[2] = system: Mycoplasma gallisepticum (MG) T-7-T, TS-resistant strain isolated from the field; assay: In vitro sensitivity test (liquid dilution method); format: cell-based; conditions: 37°C, 7 days
Method: as §1, §2

[3] = system: Mycoplasma synoviae (MS) F10-2as; assay: In vitro sensitivity test (liquid dilution method); format: cell-based; conditions: 37°C, 7 days
Method: as §1, §2

[4] = system: Mycoplasma hyopneumoniae (Mh) ST-11; assay: In vitro sensitivity test (liquid dilution method); format: cell-based; conditions: 37°C, 7 days
Method: as §1, §2

[5] = system: Mycoplasma gallisepticum (MG) S6; assay: In vitro sensitivity test (liquid dilution method); format: cell-based; conditions: 37°C, 7 days
Method: as §1, §2

[6] = system: Escherichia coli (E.coli) JC-2; assay: In vitro sensitivity test (agar dilution method); format: cell-based; conditions: 37°C, 20 to 24 hours
Method: as §1, §2

[7] = system: Staphylococcus aureus (S.au) 209P; assay: In vitro sensitivity test (agar dilution method); format: cell-based; conditions: 37°C, 20 to 24 hours
Method: as §1, §2

[8] = system: Salmonella typhimurium (S.typhi) 13311; assay: In vitro sensitivity test (agar dilution method); format: cell-based; conditions: 37°C, 20 to 24 hours
Method: as §1, §2

[9] = system: Hemophilus pleuropneumonia (H.pp) M-1; assay: In vitro sensitivity test (agar dilution method); format: cell-based; conditions: 37°C, 20 hours, 10 % CO₂
Method: as §1, §2

[10] = system: TS-resistant strain of MG; format: in vivo, chicken; conditions: for Infectious index Left air sack + / Infectious index Left air sack ++ / Infectious index Left air sack +++ / Infectious index Left air sack - / Infectious index Right air sack + / Infectious index Right air sack ++ / Infectious index Right air sack +++ / Infectious index Right air sack -: count of fowl; for Number of infected fowl/Number of fowl tested: 3.5 x 10³ CFU/fowl
[11] = system: Streptococcus sp (Str.sp) SNO6119; assay: In vitro sensitivity test; format: cell-based; conditions: 25°C, 40 to 48 hours
Method: as §1, §2

[12] = system: Pasteurella piscicida (P.pis) No. 2; assay: In vitro sensitivity test; format: cell-based; conditions: 25°C, 40 to 48 hours
Method: as §1, §2

[13] = system: H.pp (otherwise called Actinobacillus pleuropneumoniae) strain M-1; assay: Experimental H.pp infection to pig, through injection; format: in vivo; conditions: injection to thigh muscle one time, Dose 5 mg/kg; dissection 6 days after inoculation
Method: In these experiments, the compound (I) was applied to the designated animals by (1) oral administration, (2) incorporation into baits and (3) intramuscular injection, the details of which are explained below.
(3) Preparation of the MG infected fowls was performed in the same manner as in (1) above. Infection of H.pp (otherwise called Actinobacillus pleuropneumoniae) to cause pleuropneumonia in pig was performed by inoculating 5 ml of a fresh cultured strain (i.e. M-1) of H.pp to each nasopharyngeal of some 45 days pigs, each weighing 4 to 9 kg (4 to 5 pigs/group), followed by injection of the test compounds to each thigh muscle at a designated volume one time. Pigs were dissected 6 days after the inoculation. The evaluation of the antimicrobial activity was made by observation of the pneumonia symptomes in air sacs, number of dead body and degree of nodosity in air sacks on dissection.

[14] = count of fowl, bait 880 ppm/Day, 1.8 x 10³ CFU/fowl
[15] = oral 100 mg/kg, 9-days chicken, 1.7 x 10³ CFU/fowl
[16] = oral 100 mg/kg, 9-days chicken, 2.2 x 10³ CFU/fowl
[17] = oral 100 mg/kg, 10-days chicken, 1.2 x 10³ CFU/fowl
[18] = oral 100 mg/kg, 10-days chicken, 3.0 x 10³ CFU/fowl
[19] = oral 200 mg/kg, 9-days chicken, 1.7 x 10³ CFU/fowl
[20] = oral 200 mg/kg, 9-days chicken, 2.2 x 10³ CFU/fowl
[21] = oral 200 mg/kg, 10-days chicken, 1.2 x 10³ CFU/fowl
[22] = oral 200 mg/kg, 10-days chicken, 3.0 x 10³ CFU/fowl

SMILES: CN(C)[C@@H]1C(O)=C(C(N)=O)C(=O)[C@@]2(O)C(O)=C3C(=O)c4c(O)ccc(Cl)c4[C@@](C)(O)[C@H]3C[C@@H]12 [CTC, chlorotetracycline hydrochloride, reference compound]
- Number of fowl having air sack lesions (TS-resistant MG; bait 880 ppm/Day, 1.8 x 10³ CFU/fowl): 4
- Infectious index Left air sack + (TS-resistant MG; [14]): 0
- Infectious index Left air sack ++ (TS-resistant MG; [14]): 0
- Infectious index Left air sack +++ (TS-resistant MG; [14]): 0
- Infectious index Left air sack - (TS-resistant MG; [14]): 5
- Infectious index Right air sack + (TS-resistant MG; [14]): 3
- Infectious index Right air sack ++ (TS-resistant MG; [14]): 1
- Infectious index Right air sack +++ (TS-resistant MG; [14]): 0
- Infectious index Right air sack - (TS-resistant MG; [14]): 1
- In vitro Sensitivity Test MS 1853 [1]: 0.05 µg/mL
- In vitro Sensitivity Test MG T-7-T [2]: 6.25 µg/mL
- In vitro Sensitivity Test MS F10-2as [3]: 0.39 µg/ml
- In vitro Sensitivity Test Mh ST-11 [4]: 1.56 µg/mL
- In vitro Sensitivity Test MG S6 [5]: 12.5 µg/mL
- In vitro Sensitivity Test E.coli JC-2 [6]: 0.39 µg/mL
- In vitro Sensitivity Test S.au 209P [7]: 0.1 µg/mL
- In vitro Sensitivity Test S.typhi 13311 [8]: 0.1 µg/mL

SMILES: C[C@H]1c2cccc(O)c2C(=O)C2=C(O)[C@]3(O)C(=O)C(C(N)=O)=C(O)[C@@H](N(C)C)[C@@H]3[C@@H](O)[C@@H]21 [DOXY, doxycycline, reference compound]
- In vitro Sensitivity Test MS 1853 [1]: 0.1 µg/mL
- In vitro Sensitivity Test MG T-7-T [2]: 0.2 µg/mL
- In vitro Sensitivity Test MS F10-2as [3]: 0.39 µg/ml
- In vitro Sensitivity Test MG S6 [5]: 0.2 µg/mL
- In vitro Sensitivity Test E.coli JC-2 [6]: 0.39 µg/mL
- In vitro Sensitivity Test S.au 209P [7]: 0.1 µg/mL
- In vitro Sensitivity Test H.pp M-1 [9]: 0.39 µg/mL
- In vitro Sensitivity Test S.typhi 13311 [8]: 0.1 µg/mL
- Infectious index Left air sack + [10, 15]: 0
- Infectious index Left air sack ++ [10, 15]: 0
- Infectious index Left air sack +++ [10, 15]: 0
- Infectious index Left air sack - [10, 15]: 5
- Infectious index Right air sack + [10, 15]: 0
- Infectious index Right air sack ++ [10, 15]: 1
- Infectious index Right air sack +++ [10, 15]: 0
- Infectious index Right air sack - [10, 15]: 4
- Infectious index Left air sack + [10, 16]: 0
- Infectious index Left air sack ++ [10, 16]: 0
- Infectious index Left air sack +++ [10, 16]: 0
- Infectious index Left air sack - [10, 16]: 5
- Infectious index Right air sack + [10, 16]: 0
- Infectious index Right air sack ++ [10, 16]: 1
- Infectious index Right air sack +++ [10, 16]: 0
- Infectious index Right air sack - [10, 16]: 4
- Infectious index Left air sack + [10, 17]: 0
- Infectious index Left air sack ++ [10, 17]: 0
- Infectious index Left air sack +++ [10, 17]: 0
- Infectious index Left air sack - [10, 17]: 5
- Infectious index Right air sack + [10, 17]: 0
- Infectious index Right air sack ++ [10, 17]: 1
- Infectious index Right air sack +++ [10, 17]: 0
- Infectious index Right air sack - [10, 17]: 4
- Infectious index Left air sack + [10, 18]: 0
- Infectious index Left air sack ++ [10, 18]: 0
- Infectious index Left air sack +++ [10, 18]: 0
- Infectious index Left air sack - [10, 18]: 5
- Infectious index Right air sack + [10, 18]: 0
- Infectious index Right air sack ++ [10, 18]: 1
- Infectious index Right air sack +++ [10, 18]: 0
- Infectious index Right air sack - [10, 18]: 4
- Infectious index Left air sack + [10, 19]: 1
- Infectious index Left air sack ++ [10, 19]: 0
- Infectious index Left air sack +++ [10, 19]: 0
- Infectious index Left air sack - [10, 19]: 4
- Infectious index Right air sack + [10, 19]: 0
- Infectious index Right air sack ++ [10, 19]: 1
- Infectious index Right air sack +++ [10, 19]: 0
- Infectious index Right air sack - [10, 19]: 4
- Infectious index Left air sack + [10, 20]: 1
- Infectious index Left air sack ++ [10, 20]: 0
- Infectious index Left air sack +++ [10, 20]: 0
- Infectious index Left air sack - [10, 20]: 4
- Infectious index Right air sack + [10, 20]: 0
- Infectious index Right air sack ++ [10, 20]: 1
- Infectious index Right air sack +++ [10, 20]: 0
- Infectious index Right air sack - [10, 20]: 4
- Infectious index Left air sack + [10, 21]: 1
- Infectious index Left air sack ++ [10, 21]: 0
- Infectious index Left air sack +++ [10, 21]: 0
- Infectious index Left air sack - [10, 21]: 4
- Infectious index Right air sack + [10, 21]: 0
- Infectious index Right air sack ++ [10, 21]: 1
- Infectious index Right air sack +++ [10, 21]: 0
- Infectious index Right air sack - [10, 21]: 4
- Infectious index Left air sack + [10, 22]: 1
- Infectious index Left air sack ++ [10, 22]: 0
- Infectious index Left air sack +++ [10, 22]: 0
- Infectious index Left air sack - [10, 22]: 4
- Infectious index Right air sack + [10, 22]: 0
- Infectious index Right air sack ++ [10, 22]: 1
- Infectious index Right air sack +++ [10, 22]: 0
- Infectious index Right air sack - [10, 22]: 4
- Number of fowl having air sack lesions [10, 15]: 1
- Number of fowl having air sack lesions [10, 16]: 1
- Number of fowl having air sack lesions [10, 17]: 1
- Number of fowl having air sack lesions [10, 18]: 1
- Number of fowl having air sack lesions [10, 19]: 1
- Number of fowl having air sack lesions [10, 20]: 1
- Number of fowl having air sack lesions [10, 21]: 1
- Number of fowl having air sack lesions [10, 22]: 5

SMILES: CCNCC12CCCC1CN(c1c(F)cc3c(=O)c(C(=O)O)cn(CC)c3c1F)C2.Cl (stereo not shown) [I-23]
- Number of infected fowl/Number of fowl tested (TS-resistant MG; bait 31.3 ppm/Day): 5/7
- Number of infected fowl/Number of fowl tested (TS-resistant MG; bait 62.5 ppm/Day): 0/7
- Number of infected fowl/Number of fowl tested (TS-resistant MG; bait 125 ppm/Day): 0/7
- In vitro Sensitivity Test Str.sp SNO6119 [11]: 0.39 µg/mL
- In vitro Sensitivity Test P.pis No. 2 [12]: 0.78 µg/mL
- In vitro Sensitivity Test Mh ST-11 [4]: 0.78 µg/mL
- In vitro Sensitivity Test MG S6 [5]: 0.0125 µg/mL
- In vitro Sensitivity Test E.coli JC-2 [6]: 0.78 µg/mL
- In vitro Sensitivity Test S.au 209P [7]: 0.1 µg/mL
- In vitro Sensitivity Test H.pp M-1 [9]: 0.78 µg/mL
- In vitro Sensitivity Test S.typhi 13311 [8]: 1.56 µg/mL
- Number of infected fowl/Number of fowl tested ([10]; oral 1.56 mg/kg, 9-days chicken): 5/5
- Number of infected fowl/Number of fowl tested ([10]; oral 3.13 mg/kg, 9-days chicken): 5/5
- Number of infected fowl/Number of fowl tested ([10]; oral 6.25 mg/kg, 9-days chicken): 0/5
- Number of pig having nodi/Number of pig tested [13]: 2/4
